According to ChEMBL document CHEMBL4627331 (Bioorg Med Chem Lett, 2020):

What was measured:
[1] = molecular target: acetylcholinesterase (AChE) (Electrophorus electricus, UniProt O42275); experiment: Inhibition of electric eel AchE at 100 uM using acetylthiocholine as substrate by Ellman's method relative to control; details: electric eel AChE enzyme, probe acetylthiocholine
Acetylcholinesterase [2] = molecular target: Acetylcholinesterase (Electrophorus electricus, UniProt O42275); experiment: Inhibition of electric eel AchE using acetylthiocholine as substrate by Ellman's method
Sequence of Acetylcholinesterase (Electrophorus electricus, UniProt O42275) (O42275 whole entry): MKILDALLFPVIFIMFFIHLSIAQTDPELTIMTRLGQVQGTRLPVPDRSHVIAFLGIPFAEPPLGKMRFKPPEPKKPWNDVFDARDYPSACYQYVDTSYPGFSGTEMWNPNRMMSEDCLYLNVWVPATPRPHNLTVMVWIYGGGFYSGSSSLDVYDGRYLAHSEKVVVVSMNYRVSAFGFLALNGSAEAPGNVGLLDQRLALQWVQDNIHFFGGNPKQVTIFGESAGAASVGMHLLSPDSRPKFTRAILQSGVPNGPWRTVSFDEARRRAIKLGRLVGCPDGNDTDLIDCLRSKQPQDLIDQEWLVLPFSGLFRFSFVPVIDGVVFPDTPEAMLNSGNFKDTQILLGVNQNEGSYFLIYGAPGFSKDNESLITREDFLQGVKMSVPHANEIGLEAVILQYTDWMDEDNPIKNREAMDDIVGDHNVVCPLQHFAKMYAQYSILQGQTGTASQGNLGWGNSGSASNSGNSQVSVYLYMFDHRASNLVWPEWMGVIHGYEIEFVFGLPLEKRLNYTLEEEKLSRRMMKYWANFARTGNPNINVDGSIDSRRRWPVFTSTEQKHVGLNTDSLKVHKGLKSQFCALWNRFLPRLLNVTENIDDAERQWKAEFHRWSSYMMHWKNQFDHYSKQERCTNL

Cholinesterase [3] = molecular target: Cholinesterase (Equus caballus, UniProt P81908)
Sequence of Cholinesterase (Equus caballus, UniProt P81908) (P81908 whole entry): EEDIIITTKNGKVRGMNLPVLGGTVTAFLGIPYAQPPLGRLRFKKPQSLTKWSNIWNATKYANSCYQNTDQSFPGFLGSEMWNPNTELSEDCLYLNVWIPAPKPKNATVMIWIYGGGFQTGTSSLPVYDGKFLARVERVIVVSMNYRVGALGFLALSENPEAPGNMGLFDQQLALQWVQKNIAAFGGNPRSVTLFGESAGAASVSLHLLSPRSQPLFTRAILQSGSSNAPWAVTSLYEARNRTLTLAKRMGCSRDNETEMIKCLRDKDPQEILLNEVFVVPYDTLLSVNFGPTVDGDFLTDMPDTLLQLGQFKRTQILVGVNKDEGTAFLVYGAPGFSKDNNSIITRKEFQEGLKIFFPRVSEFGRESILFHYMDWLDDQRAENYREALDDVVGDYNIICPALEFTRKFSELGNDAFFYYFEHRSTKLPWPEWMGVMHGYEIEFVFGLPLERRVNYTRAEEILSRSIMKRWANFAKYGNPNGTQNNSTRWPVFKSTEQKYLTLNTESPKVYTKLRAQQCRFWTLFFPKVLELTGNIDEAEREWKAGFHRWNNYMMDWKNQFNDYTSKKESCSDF
Description: Inhibition of equine BuchE using butyrylthiocholine as substrate by Ellman's method

[4] = Selectivity index, ratio of IC50 for equine BuchE using butyrylthiocholine as substrate by Ellman's method to IC50 for human BuchE
Cholinesterase [5] = molecular target: Cholinesterase (Homo sapiens, UniProt P06276); experiment: Inhibition of human BuchE
Sequence of Cholinesterase (Homo sapiens, UniProt P06276) (P06276 whole entry): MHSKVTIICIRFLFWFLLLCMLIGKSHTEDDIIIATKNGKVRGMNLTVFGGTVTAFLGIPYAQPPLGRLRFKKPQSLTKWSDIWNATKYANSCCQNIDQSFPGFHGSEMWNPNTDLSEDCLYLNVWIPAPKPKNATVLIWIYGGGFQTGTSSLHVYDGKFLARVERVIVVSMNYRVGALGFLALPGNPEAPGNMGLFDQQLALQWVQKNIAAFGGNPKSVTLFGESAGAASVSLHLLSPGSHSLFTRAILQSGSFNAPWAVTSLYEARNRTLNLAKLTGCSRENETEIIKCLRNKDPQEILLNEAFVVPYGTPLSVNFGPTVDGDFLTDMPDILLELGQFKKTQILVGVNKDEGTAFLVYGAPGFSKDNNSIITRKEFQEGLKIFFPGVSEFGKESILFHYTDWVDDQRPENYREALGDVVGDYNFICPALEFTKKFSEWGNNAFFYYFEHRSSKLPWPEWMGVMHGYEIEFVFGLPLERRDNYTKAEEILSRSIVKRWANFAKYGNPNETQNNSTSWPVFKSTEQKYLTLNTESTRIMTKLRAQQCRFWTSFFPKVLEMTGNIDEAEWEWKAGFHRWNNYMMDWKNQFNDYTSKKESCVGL

Acetylcholinesterase [6] = molecular target: Acetylcholinesterase (Homo sapiens, UniProt P22303); experiment: Inhibition of human AchE
Sequence of Acetylcholinesterase (Homo sapiens, UniProt P22303) (P22303 whole entry): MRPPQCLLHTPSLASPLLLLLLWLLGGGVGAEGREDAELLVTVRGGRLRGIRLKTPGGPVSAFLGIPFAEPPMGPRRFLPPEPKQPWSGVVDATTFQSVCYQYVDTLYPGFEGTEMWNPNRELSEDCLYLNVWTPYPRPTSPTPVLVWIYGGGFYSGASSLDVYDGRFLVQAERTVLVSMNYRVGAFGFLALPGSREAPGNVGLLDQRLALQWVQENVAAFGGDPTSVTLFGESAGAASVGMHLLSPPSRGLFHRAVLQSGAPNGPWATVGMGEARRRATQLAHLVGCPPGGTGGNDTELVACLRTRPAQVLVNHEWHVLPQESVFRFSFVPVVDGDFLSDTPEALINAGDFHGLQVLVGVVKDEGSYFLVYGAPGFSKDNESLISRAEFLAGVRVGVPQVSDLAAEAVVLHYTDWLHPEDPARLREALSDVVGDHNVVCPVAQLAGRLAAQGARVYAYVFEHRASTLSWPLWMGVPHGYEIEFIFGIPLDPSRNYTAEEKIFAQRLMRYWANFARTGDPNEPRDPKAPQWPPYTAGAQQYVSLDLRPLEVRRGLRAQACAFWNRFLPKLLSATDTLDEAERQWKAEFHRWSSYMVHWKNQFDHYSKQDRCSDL

[7] = molecular target: acetylcholinesterase (AChE) (Homo sapiens, UniProt P22303); experiment: Inhibition of human AchE at 100 uM relative to control; details: human AChE enzyme
Sequence of acetylcholinesterase (AChE) (Homo sapiens, UniProt P22303) (P22303 whole entry): as above

[8] = Cytotoxicity against human SH-SY5Y cells by MTT assay; type: cell-based

Sequence of acetylcholinesterase (AChE) (Electrophorus electricus, UniProt O42275) (O42275 whole entry): as the sequence (O42275 whole entry) above

Row | SMILES | inhibition at 100 µM [1] | IC50 (Acetylcholinesterase [2]) | IC50 (Cholinesterase [3]) | Ratio IC50 [4] | IC50 (Cholinesterase [5]) | IC50 (Acetylcholinesterase [6]) | inhibition at 100 µM [7] | CC50 [8]
1 | O=C1CCCC2=C1C(c1ccc(OCc3ccccc3)cc1)C1=C(CCCC1=O)N2 | 24% | > 100000 nM | 6010 nM | – | – | – | – | –
2 | CCOc1cc(C2C3=C(CCCC3=O)NC3=C2C(=O)CCC3)ccc1OCc1ccccc1 | 19% | > 100000 nM | 752 nM | – | – | – | – | –
3 | O=C1CCCC2=C1C(c1ccc(OCc3ccccc3)c(Br)c1)C1=C(CCCC1=O)N2 | 14% | > 100000 nM | 633 nM | – | – | – | – | –
4 | O=C1CCCC2=C1C(c1ccc(OCc3cccc(F)c3)c(Br)c1)C1=C(CCCC1=O)N2 | 22% | > 100000 nM | 388 nM | 2.5 | 142 nM | > 100000 nM | 39% | –
5 | COc1cc(C2C3=C(CCCC3=O)N(C)C3=C2C(=O)CCC3)ccc1OCc1ccc(F)cc1 | 33% | > 100000 nM | 2440 nM | – | – | – | – | –
6 | COc1cc(C2C3=C(CCCC3=O)NC3=C2C(=O)CCC3)ccc1OS(=O)(=O)c1ccc(C)cc1 | 15% | > 100000 nM | 959 nM | – | – | – | – | –
7 | COc1cc(C2C3=C(CCCC3=O)NC3=C2C(=O)CCC3)ccc1OCc1ccc(F)cc1 | 27% | > 100000 nM | 242 nM | 2.5 | 98 nM | 125000 nM | – | ≥ 100000 nM
8 | CN1C2=C(C(=O)CCC2)C(c2ccc(OCc3ccc(Cl)cc3)c(Cl)c2)C2=C1CCCC2=O | 23% | > 100000 nM | 1660 nM | – | – | – | – | –
